Publication PMC11979685, “Synthesis of Derivatives of the Antibiotic Albicidin: The N‐Terminal Fragment as Key to Control Potency and Resistance Mediated by the Binding Protein AlbA” (Chemistry (Weinheim an Der Bergstrasse, Germany), 2025)
In brackets after ≈: the same amount, converted by molar mass. Like-named read-outs stand apart in the source and are kept apart here.

Columns and labels:
[1] = tested on: Salmonella typhimurium TA100; experiment: MIC determination (broth microdilution); format: cell-based; settings: Salmonella enterica, read-out: MIC S. typh.
Outline: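 MIC values were read visually as the lowest concentration inhibiting growth after 16 h at 30−37°C. Tests followed CLSI M07-A9, using cation-adjusted Mueller-Hinton broth II seeded at approximately 1x10^6 CFU mL-1 and final compound levels of 128 to 0.016 μg/mL added from DMSO.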

[2] = tested on: panel of gram-positive and gram-negative bacteria; experiment: MIC against panel of bacteria; format: cell-based; settings: read-out: MIC vs B. subtilis and M. luteus
Method: After completing the syntheses, the antibacterial activity of A‐variations 4–24 was assessed by determination of MIC values against a basic set of gram‐negative and gram‐positive bacteria (Table 1). The monocyclic derivatives 4–8 featuring a cyano‐, trifluoromethyl‐, methoxy‐ and fluoro‐ substituent in para‐position were very active against the gram–negative E. coli and S. typhimurium strains with MIC values in the same range as 3rd Gen albicidin 3 or ciprofloxacin which is the gold standard for gyrase inhibitors. […] These findings are in agreement with previous studies showing good activities for cyano, trifluoromethyl, methoxy and fluoro substituents in the para‐position of different aromatic rings in the building block A.[12, 13] The activity of the monocyclic derivatives 4–8 against the gram‐positive strains B. subtilis and M. luteus were similar but slightly less pronounced compared to the lead structure 3.
1.1 Determination of Minimal Inhibitory Concentrations (MIC)
Minimal inhibitory concentration (MIC) against selected bacterial strains values were determined according to the ninth edition of the Approved Standard M07-A9.[1] 20 μL of cryo stocks of bacterial strains were suspended in 20 mL LB medium (Lysogeny broth: 10 g/L peptone, 5 g/L yeast extract, 5 g/L NaCl). Following incubation overnight at 37°C, 200 rpm, the test inoculum was adjusted by 0.5 McFarland Standard in cation adjusted Mueller-Hinton broth (BBLTM Mueller-Hinton Broth II, Becton, Dickinson and Company, New Jersey, USA) to approximately 1x10^6 CFU mL-1. 95 μL of the bacterial inoculum were applied per well of a 96-well plate. Albicidin and albicidin derivatives 3−24 were dissolved in DMSO (100%) to an initial concentration of 2560 μg/mL and serially diluted in DMSO (100%). Initial solution and serial dilutions of Ciprofloxacin were prepared in 0.1 N HCL, respectively. […] Both microdilution trays and agar plates were incubated at 30−37°C for 16 h and subsequently analyzed for growth inhibition by naked eye. […]

AlbAL = experiment: Transcription activation (TA) reporter assay, pAlbA-ilux luminescence; format: cell-based, Klebsiella oxytoca; settings: luminescence normalized to 2nd Gen albicidin 2
Method: Finally, we investigated if synthetic variations of building block A are able to evade the effects of the resistance protein AlbA. Therefore, we carried out a qualitative growth inhibition assay with derivatives 4–24 in presence of an equimolar amount of purified AlbAS. After incubation of the cultures overnight, the growth of the bacteria was evaluated. The ability of AlbAS to sufficiently sequester an albicidin derivative from the supernatant allowed E. coli cells to accumulate in a visible cell pellet. Second, we performed a quantitative transcription‐activation reporter assay[22] to assess transcriptional regulation by AlbAL. The promoter sequence pAlbA was inserted into a reporter vector that encodes the ilux luminescence cassette.[22] The luminescence signals elicited by ligand binding of synthetic variations to AlbAL was compared and normalized to the signal induced by 2nd Gen albicidin 2 and are hereby referred to as relative transcription activation (TA^%). The combination of both assays prompted us to categorize the experimental outcomes (Figure 4) in four groups:
Figure 4 Characterization of AlbA resistance against derivatives 2, 4–24. GIA: Qualitative growth inhibition assay against E. coli DSM 1116. (−): Derivative unable to inhibit the growth of E. coli in presence of AlbAS. (+): Derivative inhibits growth of E. coli in presence of AlbAS. […] For details see SI Figure 9. Transcription activation (TA) assay: luminescence elicited by 2nd Gen albicidin 2 from the TA assay was normalized to 100 % and the luminescence signal of tested derivatives provided: relative luminescence [%]=luminescence [derivative]/luminescence [2]×100 %. Green bars indicate low relative luminescence (<40 %) and red bars indicate high relative luminescence (>50 %). Error bars show the standard deviations of triplicate measurements. TEXT PRINTED IN THE PICTURE: 2: E. coli inhibition +AlbA: − | 4: E. coli inhibition +AlbA: + | 9: E. coli inhibition +AlbA: + | 11: E. coli inhibition +AlbA: + | 12: E. coli inhibition +AlbA: + | 13: E. coli inhibition +AlbA: ~ | 14: E. coli inhibition +AlbA: − | 16: E. coli inhibition +AlbA: − | 17: E. coli inhibition +AlbA: − | 18: E. coli inhibition +AlbA: − | 19: E. coli inhibition +AlbA: − | 20: E. coli inhibition +AlbA: + | 21: E. coli inhibition +AlbA: − | 22: E. coli inhibition +AlbA: − | 23: E. coli inhibition +AlbA: − | 24: E. coli inhibition +AlbA: − […]
Transcription activation (TA) assay
Transcription reporter assays were conducted as described previously.[4] In short, E. coli BL21(DE3) were transformed with pET15b-AlbA, an expression construct without His-tag, and pCS-pAlbA-ilux, a reporter vector containing the pAlbA promoter and the improved bacterial luciferase reporter gene cassette ILUX.[7] […] Sixty data points were measured on a TECAN Infinite 200 microplate reader, after orbital shaking with for 10 min, with an amplitude of 3 mm, and a wait time of one minute between each measurement. At each time point, the absorbance at 600 nm ([…] bandwidth and 25 flashes) and the luminescence (500 ms integration time, no attenuation) were measured. Each assay was measured in triplicate at 30°C. The luminescence data was normalized to the OD before the background signal (wells with no albicidin added) was subtracted and the mean + standard deviation of each measurement point was calculated. […]

[3] = gram-positive bacteria B. subtilis and M. luteus

SMILES: COc1c(NC(=O)c2ccc(NC(=O)c3ccc(NC(=O)[C@H](Cc4c[nH]nn4)NC(=O)c4ccc(NC(=O)c5ccc(C#N)cc5)cc4)cn3)c(OC)c2O)ccc(C(=O)O)c1O [compound 4]
- MIC [1]: ≤ 0.016 µg/mL

SMILES: COc1c(NC(=O)c2ccc(NC(=O)c3ccc(NC(=O)[C@H](Cc4c[nH]nn4)NC(=O)c4ccc(NC(=O)[C@@H](C)Oc5ccc(O)cc5)cc4)cn3)c(OC)c2O)ccc(C(=O)O)c1O [compound 9]
- MIC [1]: 0.063 µg/mL (≈ 0.0708 µM)

SMILES: COc1c(NC(=O)c2ccc(NC(=O)c3ccc(NC(=O)[C@H](Cc4c[nH]nn4)NC(=O)c4ccc(NC(=O)c5ccc6ccccc6n5)cc4)cn3)c(OC)c2O)ccc(C(=O)O)c1O [compound 11]
- MIC [1]: ≤ 0.016 µg/mL
- MIC [2, 3]: ≤ 0.016 µg/mL

SMILES: COc1c(NC(=O)c2ccc(NC(=O)c3ccc(NC(=O)[C@H](Cc4c[nH]nn4)NC(=O)c4ccc(NC(=O)c5cc6ccccc6cn5)cc4)cn3)c(OC)c2O)ccc(C(=O)O)c1O [compound 12]
- MIC [1]: ≤ 0.016 µg/mL
- MIC [2]: 0.063 µg/mL (≈ 0.0715 µM)

SMILES: COc1c(NC(=O)c2ccc(NC(=O)c3ccc(NC(=O)[C@H](Cc4c[nH]nn4)NC(=O)c4ccc(NC(=O)c5cnc6ccccc6c5)cc4)cn3)c(OC)c2O)ccc(C(=O)O)c1O [compound 13]
- MIC [2, 3]: 0.125 µg/mL (≈ 0.142 µM)

SMILES: COc1c(NC(=O)c2ccc(NC(=O)c3ccc(NC(=O)[C@H](Cc4c[nH]nn4)NC(=O)c4ccc(NC(=O)c5ccc6ncccc6c5)cc4)cn3)c(OC)c2O)ccc(C(=O)O)c1O [compound 14]
- MIC [1]: ≤ 0.016 µg/mL

SMILES: CCn1cc(C(=O)Nc2ccc(C(=O)N[C@@H](Cc3c[nH]nn3)C(=O)Nc3ccc(C(=O)Nc4ccc(C(=O)Nc5ccc(C(=O)O)c(O)c5OC)c(O)c4OC)nc3)cc2)c(=O)c2ccc(C)nc21 [compound 18]
- MIC [1]: ≤ 0.016 µg/mL
- relative transcription activation (TA%), in words (AlbAL): low

SMILES: CCn1cc(C(=O)Nc2ccc(C(=O)N[C@@H](Cc3c[nH]nn3)C(=O)Nc3ccc(C(=O)Nc4ccc(C(=O)Nc5ccc(C(=O)O)c(O)c5OC)c(O)c4OC)nc3)cc2)c(=O)c2cc3c(cc21)OCO3 [compound 19]
- relative transcription activation (TA%), in words (AlbAL): low

SMILES: COc1c(NC(=O)c2ccc(NC(=O)c3ccc(NC(=O)[C@H](Cc4c[nH]nn4)NC(=O)c4ccc(NC(=O)c5cc(=O)c6cc(F)ccc6o5)cc4)cn3)c(OC)c2O)ccc(C(=O)O)c1O [compound 20]
- MIC [1]: ≤ 0.016 µg/mL

SMILES: COc1c(NC(=O)c2ccc(NC(=O)c3ccc(NC(=O)[C@H](Cc4c[nH]nn4)NC(=O)c4ccc(NC(=O)c5cc6cc(O)ccc6[nH]5)cc4)cn3)c(OC)c2O)ccc(C(=O)O)c1O [compound 21]
- MIC [1]: 0.125 µg/mL (≈ 0.141 µM)
- relative transcription activation (TA%), in words (AlbAL): intermediate

SMILES: COc1c(NC(=O)c2ccc(NC(=O)c3ccc(NC(=O)[C@H](Cc4c[nH]nn4)NC(=O)c4ccc(NC(=O)c5ccc6ncsc6c5)cc4)cn3)c(OC)c2O)ccc(C(=O)O)c1O [compound 22]
- MIC [1]: ≤ 0.016 µg/mL

SMILES: COc1c(NC(=O)c2ccc(NC(=O)c3ccc(NC(=O)[C@H](Cc4c[nH]nn4)NC(=O)c4ccc(NC(=O)c5ccc6nc[nH]c6c5)cc4)cn3)c(OC)c2O)ccc(C(=O)O)c1O [compound 23]
- MIC [1]: 0.125 µg/mL (≈ 0.144 µM)
- relative transcription activation (TA%), in words (AlbAL): low

SMILES: COc1c(NC(=O)c2ccc(NC(=O)c3ccc(NC(=O)[C@H](Cc4c[nH]nn4)NC(=O)c4ccc(NC(=O)c5ccc6nn[nH]c6c5)cc4)cn3)c(OC)c2O)ccc(C(=O)O)c1O [compound 24]
- MIC [1]: 0.031 µg/mL (≈ 0.0356 µM)
- relative transcription activation (TA%), in words (AlbAL): low
